Reference: article PMC12257394, “Design, Synthesis, and Biological Evaluation of Ferrocenyl–Cyclo-(Gly‑L‑Pro) Hybrids Sensitizing Multidrug-Resistant Cancer Cells to Anticancer Agents” (ACS Medicinal Chemistry Letters, 2025)

Legend:
Format in all cases: cell-based, human
[1] = Neutral red uptake viability assay, SW620D; settings: human, SW620D cells (doxorubicin-resistant), 72 h, n = 3, read-out: Cytotoxic activity IC50 (95% CI)
Description: (§1) In general, compounds 4a–e exerted little or no cytotoxic effect on either SW620 or multidrug-resistant sublines even at 10 μM, with the remarkable exception of SW620C (cisplatin-selected variant of SW620) cells, which turned out to be relatively susceptible toward ferrocenyl 4a–c. […] This trend may reflect steric or electronic contributions to cellular uptake or interaction with intracellular targets. […] However, since E/Z isomeric data are currently available only for compound 4c, this hypothesis requires validation. To quantify this effect, IC50 values were determined (Table ). […]
(§2) The normal lung fibroblast MRC-5 and colorectal adenocarcinoma SW620 cell lines used in this experiment were purchased from American Type Culture Collection (USA) via LGC […]
(§3) Standards. Multidrug-resistant variants of SW620 cells were developed in our laboratory as described previously.10, 11 All cells were cultured under standard conditions (37°C, 5% CO2, 100% humidity) in high-glucose DMEM supplemented with GlutaMaxTM, HEPES (ThermoFisher Scientific, USA), and 10% fetal bovine serum (EURx, Poland). Cells were routinely tested for potential Mycoplasma contamination using the MycoProbe Mycoplasma Detection kit (R&D System, USA).
(§4) In total, 104 cells in 100 µL of complete medium were plated per well of a 96-well plate and left overnight to allow cells to adhere to the surface. Then, the cells were exposed to a desired concentration of tested compound(s). Stock solutions were prepared in DMSO and used immediately. The final DMSO concentration was constant and nontoxic (0.1% v/v). After 70-h incubation, neutral red was added to the final concentration of 1 mM. After another 2 h, the medium was aspirated, and cells were washed twice with PBS. Dye was released using 100 µL of a solubilizer (1% acetic acid in 50% ethanol) on an orbital shaker (10 min). Absorbance was read at 540 nm using EnVision Multilabel Plate Reader (Perkin Elmer, USA). Results were expressed as % of control. The IC50 parameters were calculated using GraphPad Prism version 10 (GraphPad Software, Boston, Massachusetts USA).
The enhancement of reversal potency (ERP) value determination
For MDR reversal assays, cytotoxic agents were co-administered with compounds 4a–4e at equimolar concentrations in a range of 10 nM to 100 µM. IC₅₀ values were determined in ABCB1-overexpressing SW620 cell line variants. The enhancement of reversal potency (ERP) was calculated using the following formula: ERP = IC₅₀(drug)MDR / IC₅₀(drug + compound)MDR. All experiments were performed in triplicate (n = 3).

[2] = Neutral red uptake viability assay, SW620Mito; settings: human, SW620Mito cells (mitoxantrone-resistant), 72 h, n = 3, read-out: Cytotoxic activity IC50 (95% CI)
Description: as §1, §2, §3
as §4, with “Massachusetts USA). […]” for “Massachusetts USA).”
(§5) All experiments were performed in triplicate (n = 3).

[3] = Neutral red uptake viability assay, SW620M; settings: human, SW620M cells (methotrexate-resistant), 72 h, n = 3, read-out: Cytotoxic activity IC50 (95% CI)
Description: as §1, §2, §3
as §4, with “Massachusetts USA). […]” for “Massachusetts USA).”
as §5

[4] = Neutral red uptake viability assay, SW620C; settings: human, SW620C cells (cisplatin-resistant); SW620C, 72 h, n = 3; read-out: Cytotoxic activity IC50 (95% CI)
Description: as §2
as §3, with “described” for “Standards. Multidrug-resistant variants of SW620 cells were developed in our laboratory as described”
as §4, with “Massachusetts USA). […]” for “Massachusetts USA).”
IC₅₀ values were determined in […]
as §5

Measured: IC50 at 72 h

O=C1N/C(=C/c2ccccc2)C(=O)N2CCC[C@@H]12 [(S,E)-4e]
> 100 µM: [1] | [2] | [3] | [4]

O=C1N/C(=C\c2ccccc2)C(=O)N2CCC[C@@H]12 [(S,Z)-4e]
> 100 µM: [1] | [2] | [3] | [4]
